Measured values as given in patent EP4706404A1, “MICROENCAPSULATED NATURAL PRESERVATIVE AND ANTIOXIDANT FOR FATTY FOODS, WITH WALNUT HUSK AND WALNUT TREE LEAF EXTRACT” (Universidad Andres Bello, priority 2023, dated 2024).
Read-outs that look alike come from different tables or passages of the source.

Assays:
[1] = system: mesophilic aerobic microorganisms (AMR); conditions: mayonnaise
Text: (§1) Mayonnaise was made on a laboratory scale using mayonnaise powder, the flowchart is shown in Diagram 3. [formula]
(§2) Where the stability of mayonnaise without any antioxidant (control) was studied, the stability when using a frequently used synthetic antioxidant such as EDTA, and a microparticle of the invention for foods with more than 70% fat, which corresponds to Maltodextrin with capsule as a channeling agent (EH:MD-Capsule). The dose used was in accordance with the food safety regulations (FSR) and corresponded to 5.5 g of microparticles per 2 kilos of mayonnaise. […] Table 9. Mayonnaise formulation for stability tests.

Salmonella = conditions: mayonnaise
Text: as §1, §2

S. aureus = conditions: mayonnaise

Protocol for HEPG-2: The test consisted of evaluating the cytotoxic effect of walnut husk and leaf extract, in different concentrations, on viability in cell culture. For this, the HEPG-2 line was used as a cell matrix, which are immortalized human liver cells.
To evaluate the effect on viability in cell culture, an assay was performed with the Invitrogen MTT kit (Ref.V13154; lot:1924421), whose technique consists of a colorimetric analysis that measures the metabolic activity of the cell. This assay was carried out following the protocol provided by the kit supplier, using a 96-well plate with HEPG-2 cell culture with an approximate confluence of 80%. Taking the cytotoxic compound SDS 0.2% as a positive control and the cell culture with its medium as a negative control.

Compound | day of conservation from which AMR were detected ([1]; 4°C) [days] | AMR Title ([1]; 4°C, 6 days refrigeration) [CFU/gr] | AMR Title ([1]; 4°C, 13 days refrigeration) [CFU/gr] | AMR Title ([1]; 4°C, 20 days refrigeration) | AMR Title ([1]; 4°C, 27 days refrigeration) | AMR Title ([1]; Time 0) [CFU/gr] | Salmonella Title (Salmonella; 4°C, 6 days refrigeration) [CFU/gr] | Salmonella Title (Salmonella; 4°C, 13 days refrigeration) [CFU/gr] | Salmonella Title (Salmonella; 4°C, 20 days refrigeration) [CFU/gr] | Salmonella Title (Salmonella; 4°C, 27 days refrigeration) [CFU/gr] | Salmonella Title (Salmonella; Time 0) [CFU/gr] | day from which S. aureus develops (S. aureus; 4°C) [days] | S. aureus Title (S. aureus; 4°C, 6 days refrigeration) [CFU/gr] | S. aureus Title (S. aureus; 4°C, 13 days refrigeration) [CFU/gr] | S. aureus Title (S. aureus; 4°C, 27 days refrigeration) | S. aureus Title (S. aureus; Time 0) [CFU/gr] | Cell viability (HEPG-2) [%] | Cell viability (Caco-2 cells) [%]
O=C(O)CN(CCN(CC(=O)O)CC(=O)O)CC(=O)O [synthetic, EDTA] | 20 | 0 | 0 | 2x10^4 CFU/gr | 1.25 x 10^5 CFU/gr | 0 | 0 | 0 | 0 | 0 | 0 | 20 | 0 | 0 | 1.15 x 10^4 CFU/gr | 0 | – | –
CCCCCCCCCCCCOS(=O)(=O)[O-].[Na+] [SDS] | – | – | – | – | – | – | – | – | – | – | – | – | – | – | – | – | 22.9 | 3.94± 0.2
